The record followed here is patent publication US20130102618A1, “3-AMINO-5,6-DIHYDRO-1H-PYRAZIN-2-ONE DERIVATIVES USEFUL FOR THE TREATMENT OF ALZHEIMER'S DISEASE AND OTHER FORMS OF DEMENTIA” (JANSSEN PHARMACEUTICA NV, priority 2010, published 2013).

SMILES strings stand for the structures. Where only a bound is given, the exact number is not on record here.

The subject of data set [1] is Aβ42 produced and secreted into the medium of human neuroblastoma SKNBE2 cells. Briefly: Cellular αlisa assay in SKNBE2 cells, Aβ42. Format: cell-based. To be noted: SKNBE2 expressing wild type hAPP695, incubated for 18 hours, read-out: Cellular αlisa assay in SKNBE2 cells Aβ42 pIC50 (converted). The method, then:
(§1) In two αlisa assays the levels of Aβtotal and Aβ42 produced and secreted into the medium of human neuroblastoma SKNBE2 cells are quantified. The assay is based on the human neuroblastoma SKNBE2 expressing the wild type Amyloid Precursor Protein (hAPP695). The compounds are diluted and added to these cells, incubated for 18 hours and then measurements of Aβ42 and Aβtotal are taken. Aβtotal and Aβ42 are measured by sandwich αlisa. αlisa is a sandwich assay using biotinylated antibody AbN/25 attached to streptavidin coated beads and antibody Ab4G8 or cAb42/26 conjugated acceptor beads for the detection of Aβtotal and Aβ42 respectively. In the presence of Aβtotal or Aβ42, the beads come into close proximity. The excitation of the Donor beads provokes the release of singlet oxygen molecules that triggers a cascade of energy transfer in the Acceptor beads, resulting in light emission. Light emission is measured after 1 hour incubation (excitation at […] and emission at 615 nm).
(§2) A best-fit curve is fitted by a minimum sum of squares method to the plot of % Controlmin versus compound concentration. From this an IC50 value (inhibitory concentration causing 50% inhibition of activity) can be obtained.

The target of data set [2] is T1, recombinant BACE1 protein (Homo sapiens, UniProt P56817).
T1 construct: recombinant BACE1 protein in a final concentration of 1 μg/ml
T1 sequence (P56817 46-501): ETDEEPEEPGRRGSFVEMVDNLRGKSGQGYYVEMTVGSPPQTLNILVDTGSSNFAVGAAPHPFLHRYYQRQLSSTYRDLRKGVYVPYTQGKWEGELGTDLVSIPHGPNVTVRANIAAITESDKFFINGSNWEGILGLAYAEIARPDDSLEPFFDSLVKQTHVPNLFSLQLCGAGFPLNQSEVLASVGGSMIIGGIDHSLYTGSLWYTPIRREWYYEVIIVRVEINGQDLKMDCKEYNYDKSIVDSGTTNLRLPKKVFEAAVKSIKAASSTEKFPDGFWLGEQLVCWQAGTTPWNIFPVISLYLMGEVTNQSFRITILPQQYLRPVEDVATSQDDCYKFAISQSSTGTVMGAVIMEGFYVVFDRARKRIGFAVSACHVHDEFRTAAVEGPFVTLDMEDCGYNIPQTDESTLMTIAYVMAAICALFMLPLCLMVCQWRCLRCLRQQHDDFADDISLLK
In words: Biochemical FRET based assay. To be noted: recombinant BACE1 1 μg/ml, APP-derived Swedish-mutation peptide substrate, 120 minutes, room temperature, pH 5.0; read-out: Biochemical FRET based assay pIC50 (converted). The source says: This assay is a Fluorescence Resonance Energy Transfer Assay (FRET) based assay. The substrate for this assay is an APP derived 13 amino acids peptide that contains the ‘Swedish’ Lys-Met/Asn-Leu mutation of the amyloid precursor protein (APP) β-secretase cleavage site. This substrate also contains two fluorophores: (7-methoxy-coumarin-4-yl)acetic acid (Mca) is a fluorescent donor with excitation wavelength at 320 nm and emission at 405 nm and 2,4-Dinitrophenyl (Dnp) is a proprietary quencher acceptor. […] Upon cleavage by BACE1, the fluorophore Mca is separated from the quenching group Dnp, restoring the full fluorescence yield of the donor. The increase in fluorescence is linearly related to the rate of proteolysis (Koike H et al. J Biochem. 1999, 126, 235-42).
Briefly in a 384-well format recombinant BACE1 protein in a final concentration of 1 μg/ml is incubated for 120 minutes at room temperature with 10 μm substrate in incubation buffer (40 mM Citrate buffer pH 5.0, 0.04% PEG, 4% DMSO) in the absence or presence of compound. Next the amount of proteolysis is directly measured by fluorescence measurement at T=0 and T=120 (excitation at 320 nm and emission at 405 nm). Results are expressed in RFU, as difference between T120 and T0.
A best-fit curve is fitted by a minimum sum of squares method to the plot of % Controlmin versus compound concentration. From this an […] value (inhibitory concentration causing 50% inhibition of activity) can be obtained.

Data set [3] deals with Aβtotal produced and secreted into the medium of human neuroblastoma SKNBE2 cells. In words: Cellular αlisa assay in SKNBE2 cells, Aβtotal. It is filed as cell-based. The following applies: SKNBE2 expressing wild type hAPP695, incubated for 18 hours, read-out: Cellular αlisa assay in SKNBE2 cells Aβtotal pIC50 (converted). The method, then:
as §1, §2

For `COc1cncc(-c2cc(C3(C)CN(C)C(=O)C(N)=N3)c(F)cc2F)c1` (stereo not drawn) [compound 7], the melting point – broadly, the temperature of the solid-liquid transition – is 180.5 °C. Moreover, the IC50 in data set [1] was 4.47 µM. The IC50 in data set [2] was 7.59 µM. Further, the IC50 in data set [3] was 4.07 µM.

`CN1CC(C)(c2cc(-c3cncnc3)c(F)cc2F)N=C(N)C1=O` (stereo not drawn) [compound 10] yielded a melting point of 145.2 °C. For the same compound, the IC50 in data set [1] was more than 10 µM. Moreover, in data set [2], the IC50 was more than 30.2 µM. Also, the IC50 in data set [3] is more than 10 µM.

In the case of `CN1CC(C)(c2cc(-c3ccccc3)c(F)cc2F)N=C(N)C1=O` (stereo not drawn) [compound 6], the melting point was determined as 141.5 °C. Also, in data set [1], the IC50 is more than 10 µM. For the same compound, the IC50 in data set [2] is more than 30.2 µM. In addition, the IC50 in data set [3] was more than 10 µM.

In the case of `COc1cncc(-c2cccc(C3(C)CN(C)C(=O)C(N)=N3)c2)c1` (stereo not drawn) [compound 2], the melting point came out at 230.4 °C. In addition, the IC50 in data set [1] was 7.94 µM. Also, the IC50 in data set [2] is 15.5 µM. Moreover, the IC50 in data set [3] is 5.75 µM.

`CN1CC(C)(c2cccc(-c3cncnc3)c2)N=C(N)C1=O` (stereo not drawn) [compound 16]: the melting point is 234.6 °C. Further, the IC50 in data set [1] is more than 10 µM. In data set [2], the IC50 is more than 30.2 µM. Besides, the IC50 in data set [3] is more than 10 µM.

For `CN1CC(C)(c2cccc(NC(=O)c3ccc(Cl)cn3)c2)N=C(N)C1=O` (stereo not drawn) [compound 3], the IC50 in data set [1] is 0.115 µM; in data set [2], 0.457 µM; in data set [3], 0.107 µM.

For the compound `CN1CC(C)(c2cccc(-c3cccc(C#N)c3)c2)N=C(N)C1=O` (stereo not drawn) [compound 1], the melting point was determined as 218.6 °C. In data set [1], the IC50 was 7.08 µM. In addition, in data set [2], the IC50 is 27.5 µM. Further, the IC50 in data set [3] is 5.75 µM.
